Molecular target: human GHS-R 1a (Homo sapiens, UniProt Q92847)
Assay: GHS-R 1a receptor-ligand binding assay (membrane preparations from transfected LLC PK-1 cells)
Set-up: expressed in transfected cells
Conditions: displacement of 125I-His9-ghrelin; plasma membranes of LLC PK-1 cells transiently transfected with human GHS-R 1a; mean of at least two independent experiments in triplicates
Procedure: II) GHS-R 1a Receptor-Ligand Binding Assay (Membrane Preparations from Transfected LLC PK-1 Cells)
The GHS-R 1a receptor binding/affinity studies were performed according to Guerlavais et al. (J. Med. Chem. 2003, 46: 1191-1203).
Isolated plasma membranes from LLC PK-1 cells, a renal epithelial cell line originally derived from porcine kidneys (ECACC No. 86121112) (10 μg of protein), that were transiently transfected with human GHS-R 1a cDNA (Guerlavais et al., J. Med. Chem. 2003, 46: 1191-1203), were incubated in homogenization buffer HB [50 mM Tris (pH 7.3), 5 mM MgCl2, 2.5 mM EDTA, and 30 μg/mL bacitracin (Sigma)] for 60 min at 25° C. (steady-state conditions) with […] ^125I-His^9-ghrelin (Amersham) in the presence or absence of competing compounds (compounds of the invention).
Nonspecific binding was defined using an excess (10^−6 M) of ghrelin. The binding reaction was stopped by addition of 4 mL of ice-cold HB followed by rapid filtration over Whatman GP/C filters presoaked with 0.5% polyethyleneimine to prevent excessive binding of radioligand to the filters. Filters were rinsed three times with 3 mL of icecold wash buffer [50 mM Tris (pH 7.3), 10 mM MgCl2, 2.5 mM EDTA, and 0.015% (w/v) X-100 Triton], and the radioactivity bound to membranes was measured in a gammacounter (Kontron Analytical Gamma Matic, Automatic gamma counting system).
The concentration of test compounds required to inhibit radiolabelled ghrelin binding by 50% (IC50) was determined by fitting competitive binding curves using non-linear regression (PRISM 3.0, Graph Pad San Diego, USA).
In the following table 2 results obtained for selected compounds of the invention are presented in comparison to an example of the prior art. IC50 values given are the mean of at least two independent experiments performed in triplicates.

Sequence of human GHS-R 1a (Q92847 whole entry): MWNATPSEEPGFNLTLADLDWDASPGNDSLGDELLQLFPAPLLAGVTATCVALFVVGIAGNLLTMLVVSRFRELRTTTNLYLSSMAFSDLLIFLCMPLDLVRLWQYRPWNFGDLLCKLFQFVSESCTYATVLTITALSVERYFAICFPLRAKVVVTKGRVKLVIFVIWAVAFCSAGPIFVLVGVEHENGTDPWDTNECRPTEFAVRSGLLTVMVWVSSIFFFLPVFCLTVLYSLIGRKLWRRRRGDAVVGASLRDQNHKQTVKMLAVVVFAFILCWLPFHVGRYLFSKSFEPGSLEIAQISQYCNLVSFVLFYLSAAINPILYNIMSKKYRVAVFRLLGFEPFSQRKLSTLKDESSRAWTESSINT

Structure (SMILES) | IC50 [nM]
O=C(Cc1ccccn1)N[C@H](Cc1c[nH]c2ccccc12)c1nnc(CCc2c[nH]c3ccccc23)n1Cc1ccc(Cl)c(Cl)c1 [Compound 52, N-((R)-1-(5-(2-(1H-indol-3-yl)ethyl)-4-(3,4-dichlorobenzyl)-4H-1,2,4-triazol-3-yl)-2-(1H-indol-3-yl)ethyl)-2-(pyridin-2-yl)acetamide] | 48
COc1ccc(Cn2c(CCc3ccccc3)nnc2[C@@H](Cc2cccc3ccccc23)NC(=O)C2CCNCC2)cc1 [Compound 78, N-((R)-1-(4-(4-methoxybenzyl)-5-phenethyl-4H-1,2,4-triazol-3-yl)-2-(naphthalen-1-yl)ethyl)piperidine-4-carboxamide] | 2.2
COc1ccc(Cn2c(CCc3ccccc3)nnc2[C@@H](Cc2ccc3ccccc3c2)NC(=O)C2CCNCC2)cc1 [Compound 54, N-((R)-1-(4-(4-methoxybenzyl)-5-phenethyl-4H-1,2,4-triazol-3-yl)-2-(naphthalen-2-yl)ethyl)piperidine-4-carboxamide] | 0.3
COc1ccc(Cn2c(CCc3ccccc3)nnc2[C@@H](Cc2ccc3ccccc3c2)NC(=O)c2ccccn2)cc1 [Compound 57, N-((R)-1-(4-(4-methoxybenzyl)-5-phenethyl-4H-1,2,4-triazol-3-yl)-2-(naphthalen-2-yl)ethyl)picolinamide] | 0.7
COc1ccc(Cn2c(CCc3c[nH]c4ccccc34)nnc2[C@@H](Cc2ccc3ccccc3c2)NC(=O)c2ccccn2)cc1 [Compound 58, N-((R)-1-(5-(2-(1H-indol-3-yl)ethyl)-4-(4-methoxybenzyl)-4H-1,2,4-triazol-3-yl)-2-(naphthalen-2-yl)ethyl)picolinamide] | 1
O=C(N[C@H](Cc1c[nH]c2ccccc12)c1nnc(CCc2ccccc2)n1CCc1ccccc1)c1ccccc1 [Compound 63, N-((R)-2-(1H-indol-3-yl)-1-(4,5-diphenethyl-4H-1,2,4-triazol-3-yl)ethyl)benzamide] | 535
COc1ccc(Cn2c(CCc3ccccc3)nnc2[C@@H](Cc2cccc3ccccc23)NC(=O)c2ccccn2)cc1 [Compound 79, N-((R)-1-(4-(4-methoxybenzyl)-5-phenethyl-4H-1,2,4-triazol-3-yl)-2-(naphthalen-1-yl)ethyl)picolinamide] | 1.45
O=C(N[C@H](Cc1c[nH]c2ccccc12)c1nnc(CCc2ccccc2)n1CCc1ccccc1)c1cnccn1 [Compound 66, N-((R)-2-(1H-indol-3-yl)-1-(4,5-diphenethyl-4H-1,2,4-triazol-3-yl)ethyl)pyrazine-2-carboxamide] | 825
COc1ccc(Cn2c(CCc3ccccc3)nnc2[C@@H](Cc2cccc3ccccc23)NC(=O)C(C)(C)N)cc1 [Compound 77, N-((R)-1-(4-(4-methoxybenzyl)-5-phenethyl-4H-1,2,4-triazol-3-yl)-2-(naphthalen-1-yl)ethyl)-2-amino-2-methylpropanamide] | 12.3
O=C(N[C@H](Cc1c[nH]c2ccccc12)c1nnc(CCc2ccccc2)n1CCc1ccccc1)C1CCNCC1 [Compound 71, N-((R)-2-(1H-indol-3-yl)-1-(4,5-diphenethyl-4H-1,2,4-triazol-3-yl)ethyl)piperidine-4-carboxamide] | 92
O=C(N[C@H](Cc1c[nH]c2ccccc12)c1nnc(CCc2ccccc2)n1Cc1ccc(-c2ccccc2)cc1)C1CCNCC1 [Compound 74, N-((R)-1-(4-(4-phenylbenzyl)-5-phenethyl-4H-1,2,4-triazol-3-yl)-2-(1H-indol-3-yl)ethyl)piperidine-4-carboxamide] | 95
COc1ccc(Cn2c(CCc3ccccc3)nnc2[C@@H](Cc2ccc3ccccc3c2)NC(=O)C2CCCN2)cc1 (stereo partly drawn) [Compound 59, N-((R)-1-(4-(4-methoxybenzyl)-5-phenethyl-4H-1,2,4-triazol-3-yl)-2-(naphthalen-2-yl)ethyl)pyrrolidine-2-carboxamide] | 27.8
O=C(N[C@H](Cc1c[nH]c2ccccc12)c1nnc(CCCc2c[nH]c3ccccc23)n1Cc1cccc2ccccc12)c1cnccn1 [Compound 51, N-((R)-1-(5-(3-(1H-indol-3-yl)propyl)-4-((naphthalen-1-yl)methyl)-4H-1,2,4-triazol-3-yl)-2-(1H-indol-3-yl)ethyl)pyrazine-2-carboxamide] | 107
CC(C)(N)C(=O)N[C@H](Cc1c[nH]c2ccccc12)c1nnc(CCc2ccccc2)n1Cc1ccc(-c2ccccc2)cc1 [Compound 73, 2-amino-N-((R)-1-(4-(4-phenylbenzyl)-5-phenethyl-4H-1,2,4-triazol-3-yl)-2-(1H-indol-3-yl)ethyl)-2-methylpropanamide] | 150
O=C(N[C@H](Cc1c[nH]c2ccccc12)c1nnc(CCc2ccccc2)n1CCc1ccccc1)c1ccccn1 [Compound 64, N-((R)-2-(1H-indol-3-yl)-1-(4,5-diphenethyl-4H-1,2,4-triazol-3-yl)ethyl)picolinamide] | 198
COc1ccc(Cn2c(CCc3ccccc3)nnc2[C@@H](Cc2ccc3ccccc3c2)NC(=O)C(C)(C)N)cc1 [Compound 55, N-((R)-1-(4-(4-methoxybenzyl)-5-phenethyl-4H-1,2,4-triazol-3-yl)-2-(naphthalen-2-yl)ethyl)-2-amino-2-methylpropanamide] | 13.7
O=C(N[C@H](Cc1c[nH]c2ccccc12)c1nnc(CCCc2c[nH]c3ccccc23)n1Cc1cccc2ccccc12)c1ccccn1 [Compound 45, N-((R)-1-(5-(3-(1H-indol-3-yl)propyl)-4-((naphthalen-1-yl)methyl)-4H-1,2,4-triazol-3-yl)-2-(1H-indol-3-yl)ethyl)picolinamide] | 29
O=C(Cc1ccccn1)N[C@H](Cc1c[nH]c2ccccc12)c1nnc(CCCc2c[nH]c3ccccc23)n1Cc1cccc2ccccc12 [Compound 40, N-((R)-1-(5-(3-(1H-indol-3-yl)propyl)-4-((naphthalen-1-yl)methyl)-4H-1,2,4-triazol-3-yl)-2-(1H-indol-3-yl)ethyl)-2-(pyridin-2-yl)acetamide] | 20.9
NCCCC(=O)N[C@H](Cc1c[nH]c2ccccc12)c1nnc(CCc2c[nH]c3ccccc23)n1Cc1cccc2ccccc12 [Compound 67, N-((R)-1-(5-(2-(1H-indol-3-yl)ethyl)-4-((naphthalen-1-yl)methyl)-4H-1,2,4-triazol-3-yl)-2-(1H-indol-3-yl)ethyl)-4-aminobutanamide] | 0.27
NCCCC(=O)N[C@H](Cc1c[nH]c2ccccc12)c1nnc(CCc2ccccc2)n1Cc1cccc2ccccc12 [Compound 68, N-((R)-2-(1H-indol-3-yl)-1-(4-((naphthalen-1-yl)methyl)-5-phenethyl-4H-1,2,4-triazol-3-yl)ethyl)-4-aminobutanamide] | 182
O=C(N[C@H](Cc1c[nH]c2ccccc12)c1nnc(CCc2ccccc2)n1CCc1ccccc1)C1CCCCC1 [Compound 62, N-((R)-2-(1H-indol-3-yl)-1-(4,5-diphenethyl-4H-1,2,4-triazol-3-yl)ethyl)cyclohexane-carboxamide] | 707
O=C(N[C@H](Cc1c[nH]c2ccccc12)c1nnc(Cc2ccccc2)n1Cc1ccc(Cl)c(Cl)c1)c1cnccn1 [Compound 38, N-((R)-1-(4-(3,4-dichlorobenzyl)-5-benzyl-4H-1,2,4-triazol-3-yl)-2-(1H-indol-3-yl)ethyl)pyrazine-2-carboxamide] | 430
O=C(Cc1ccccn1)N[C@H](Cc1c[nH]c2ccccc12)c1nnc(CCc2ccccc2)n1Cc1cccc2ccccc12 [Compound 50, N-((R)-2-(1H-indol-3-yl)-1-(4-((naphthalen-1-yl)methyl)-5-phenethyl-4H-1,2,4-triazol-3-yl)ethyl)-2-(pyridin-2-yl)acetamide] | 107
NCCCC(=O)N[C@H](Cc1c[nH]c2ccccc12)c1nnc(CCCc2c[nH]c3ccccc23)n1Cc1cccc2ccccc12 [Compound 69, N-((R)-1-(5-(3-(1H-indol-3-yl)propyl)-4-((naphthalen-1-yl)methyl)-4H-1,2,4-triazol-3-yl)-2-(1H-indol-3-yl)ethyl)-4-aminobutanamide] | 126
O=C(N[C@H](Cc1c[nH]c2ccccc12)c1nnc(CCCc2c[nH]c3ccccc23)n1Cc1cccc2ccccc12)C1CCOCC1 [Compound 46, N-((R)-1-(5-(3-(1H-indol-3-yl)propyl)-4-((naphthalen-1-yl)methyl)-4H-1,2,4-triazol-3-yl)-2-(1H-indol-3-yl)ethyl)-tetrahydro-2H-pyran-4-carboxamide] | 143
O=C(N[C@H](Cc1c[nH]c2ccccc12)c1nnc(CCc2c[nH]c3ccccc23)n1Cc1ccc(Cl)c(Cl)c1)C1CCCN1 (stereo partly drawn) [Compound 53, N-((R)-1-(5-(2-(1H-indol-3-yl)ethyl)-4-(3,4-dichlorobenzyl)-4H-1,2,4-triazol-3-yl)-2-(1H-indol-3-yl)ethyl)pyrrolidine-2-carboxamide] | 158
